According to ChEMBL document CHEMBL5727678, “CARM1 inhibitors and uses thereof” (2020):

Assay: Enzyme Assay: The assays were all performed in a buffer consisting of 20 mM Bicine (pH=7.6), 1 mM TCEP, 0.005% BSG, and 0.002% Tween 20, prepared on the day of use. Compounds in 100% DMSO (1 ul) were spotted into a polypropylene 384-well V-bottom plates using a Platemate Plus outfitted with a 384-channel head . DMSO (1 ul) was added to Columns 11, 12, 23, 24, rows A-H for the maximum signal control and 1 ul of SAH, a known product and inhibitor of CARM1, was added to columns 11, 12, 23, 24, rows I-P for the minimum signal control. A cocktail (40 ul) containing the CARM1 enzyme was added by Multidrop Combi. The compounds were allowed to incubate with CARM1 for 30 min at room temperature, then a cocktail (10 ul) containing 3H-SAM and peptide was added to initiate the reaction (final volume=51 ul). The final concentrations of the components were as follows: CARM1 was 0.25 nM, 3H-SAM was 30 nM, peptide was 250 nM, SAH in the minimum signal control wells was 1 mM, and the DMSO concentration was 2%. The assays were stopped by the addition of non-radiolabeled SAM (10 ul) to a final concentration of 300 uM, which dilutes the 3H-SAM to a level where its incorporation into the peptide substrate is no longer detectable. 50 ul of the reaction in the 384-well polypropylene plate was then transferred to a 384-well Flashplate and the biotinylated peptides were allowed to bind to the streptavidin surface for at least 1 hour before being washed once with 0.1% Tween20 in a Biotek ELx405 plate washer.

IC50, < 100 nM:
CNCC(O)COc1cccc(-c2nc(-c3c(C)noc3C)c(C)c(N3CCO[C@H](CNC)C3)n2)c1 (stereo partly drawn), CNC[C@@H](O)COc1ccc(Cl)c(-c2nc(-c3c(C)noc3C)c(C)c(N3Cc4c(C)nn(C)c4C3)n2)c1, CNCC(O)COc1cccc(-c2nc(-c3c(C)noc3C)cc(N3C[C@@H]4C[C@H]3CN4C(=O)OC)n2)c1 (stereo partly drawn)
